Assay results taken from patent US8552016B2, “Anti-cancer cyclopenta(g)quinazoline compounds” (BTG International Limited, priority 2001, dated 2013).
Like-named read-outs stand apart in the source and are kept apart here.

Assays:
[1] = system: KB cells; assay: Inhibition of growth of KB cells (constitutively overexpress α-FR); format: cell-based, human; settings: for KB: fold increased IC50 in presence of folic acid: 1 μM FA
Description: (§1) CB300945, the (RS)-C2-CH2OH analogue of the known cyclopenta[g]-quinazoline, CB300638 was synthesised as in Example 1. In addition, the C2-NH2 was made as a comparative example. […] The human A431-FBP cell line was transfected with the α-FR and sensitivity compared with the A431 cell line. Human nasopharengeal KB cells constitutively overexpress this receptor (see Bagnoli et al. Oncogene, 19, 4754-4763, 2000).

[2] = system: A431 cells; assay: Inhibition of growth of A431 (neo-transfected, not expressing α-FR) cells; format: cell-based, human; settings: for A431: fold increased IC50 in presence of folic acid: 1 μM FA
Description: as §1

[3] = molecular target: T1, α-FR of L1210-FBP cells (Mus musculus, UniProt P35846); assay: Binding to the α-FR relative to folic acid, L1210-FBP cells; settings: >1 = binding greater than folic acid
T1 construct: endogenous in cells; host or cells: mouse L1210-FBP leukaemia cells
T1 sequence (P35846 25-232): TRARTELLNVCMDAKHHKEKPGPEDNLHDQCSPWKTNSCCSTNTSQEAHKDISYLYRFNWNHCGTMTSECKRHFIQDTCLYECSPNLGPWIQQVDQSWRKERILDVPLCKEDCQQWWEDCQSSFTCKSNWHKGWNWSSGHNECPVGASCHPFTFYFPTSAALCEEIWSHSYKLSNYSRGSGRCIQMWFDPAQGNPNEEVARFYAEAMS

[4] = system: A431-FBP cells; assay: Inhibition of growth of A431-FBP cells (A431 transfected with the α-FR); format: cell-based, human; settings: for A431-FBP: fold increased IC50 in presence of folic acid: 1 μM FA; for activity in A431-FBP cells (in words): α-FR mediated uptake
Description: as §1

[5] = Homo sapiens, KB, read-out: Inhibition of cell growth, IC50, KB + 1 μM FA, 1 nM LV, + 1 μM folic acid
[6] = Homo sapiens, KB, read-out: Inhibition of cell growth, IC50, KB + 1 μM FA, 20 nM LV, + 1 μM folic acid
[7] = Homo sapiens, A-431, 1 nM LV, read-out: Inhibition of cell growth, IC50, A431
[8] = Homo sapiens, A-431, read-out: Inhibition of cell growth, IC50, A431 + 1 μM FA, 1 nM LV, + 1 μM folic acid
[9] = Homo sapiens, A-431, read-out: Inhibition of cell growth, IC50, A431 + 1 μM FA, 20 nM LV, + 1 μM folic acid
[10] = Homo sapiens, A-431, 1 nM LV, read-out: Inhibition of cell growth, IC50, A431-FBP
[11] = Homo sapiens, A-431, read-out: Inhibition of cell growth, IC50, A431-FBP + 1 μM FA, 1 nM LV, + 1 μM folic acid
[12] = Homo sapiens, A-431, read-out: Inhibition of cell growth, IC50, A431-FBP + 1 μM FA, 20 nM LV, + 1 μM folic acid
[13] = Homo sapiens, KB, 1 nM LV, read-out: Inhibition of cell growth, IC50, KB
[14] = 20 nM LV, read-out: Inhibition of cell growth, IC50, A431

| Structure (SMILES) | KB: fold increased IC50 in presence of folic acid ([1]; 1 nM LV) | KB: fold increased IC50 in presence of folic acid ([1]; 20 nM LV) | IC50 [1, 5] [µM] | IC50 [1, 6] [µM] | A431: fold increased IC50 in presence of folic acid ([2]; 20 nM LV) | IC50 [2, 7] [µM] | IC50 [2, 8] [µM] | IC50 [2, 9] [µM] | relative binding affinity (inverse relative affinity) for the α-FR [3] | A431-FBP: fold increased sensitivity compared with A431 ([4]; 1 nM LV) | A431-FBP: fold increased IC50 in presence of folic acid ([4]; 1 nM LV) | A431-FBP: fold increased sensitivity compared with A431 ([4]; 20 nM LV) | A431-FBP: fold increased IC50 in presence of folic acid ([4]; 20 nM LV) | IC50 [4, 10] [µM] | IC50 [4, 11] [µM] | IC50 [4, 12] [µM] | activity in A431-FBP cells (in words) [4] | IC50 [1, 13] [µM] | A431: fold increased IC50 in presence of folic acid ([2]; 1 nM LV) | IC50 [2, 14] [µM] | other results |
| --- | --- | --- | --- | --- | --- | --- | --- | --- | --- | --- | --- | --- | --- | --- | --- | --- | --- | --- | --- | --- | --- |
| C#CCN(c1ccc(C(=O)N[C@@H](CCC(=O)N[C@H](CCC(=O)O)C(=O)O)C(=O)O)cc1)C1CCc2cc3nc(CO)[nH]c(=O)c3cc21 (mixture of isomers) [CB300945 (RS), N—{N-{4-[N-((6RS)-2-Hydroxymethyl-4-oxo-3,4,7,8-tetrahydro-6H-cyclopenta[g]quinazolin-6-yl)-N-(prop-2-ynyl)amino]benzoyl}-L-γ-glutamyl}-D-glutamic acid] | (2200) fold | (2100) fold | 7.6 ± 1.3 | 7.3 ± 2 | (1) fold | 7.2 ± 3.6 | 7.3 ± 3.3 | 9.3 ± 3.5 | 0.71 | (3800) fold | (3100) fold | (4700) fold | (3100) fold | 0.0019 ± 0.0006 | 5.7 ± 1.3 | 6.5 ± 0.86 | highly potent | – | – | – | – |
| C#CCN(c1ccc(C(=O)N[C@@H](CCC(=O)N(C)[C@@H](CCC(=O)O)C(=O)O)C(=O)O)cc1)C1CCc2cc3nc(CO)[nH]c(=O)c3cc21 (mixture of isomers) [CB300960 (R, S), N—{N-{4-[N-((6RS)-2-hydroxymethyl-4-oxo-3,4,7,8-tetrahydro-6H-cyclopenta[g]quinazolin-6-yl)-N-(prop-2-ynyl)amino]benzoyl}-L-γ-glutamyl}-N-methyl-L-glutamic acid] | – | – | – | – | (1) fold | – | – | – | – | – | – | – | (180) fold | – | – | 5.1 | – | – | – | – | – |
| C#CCN(c1ccc(C(=O)N[C@@H](CCC(=O)N[C@H](CCC(=O)O)C(=O)O)C(=O)O)cc1)C1CCc2cc3nc(C)[nH]c(=O)c3cc21 (mixture of isomers) [CB300638 (RS)] | (76) fold | (140) fold | 0.61 ± 0.012 | 0.76 ± 0.17 | (1) fold | 1.2 ± 0.21 | 0.98 ± 0.23 | – | 0.57 | (170) fold | (85) fold | (220) fold | (130) fold | 0.0072 ± 0.001 | 0.61 ± 0.012 | 0.87 ± 0.29 | highly sensitive | 0.0079 ± 0.001 | (1) fold | – | – |
| C#CCN(c1ccc(C(=O)N[C@@H](CCC(=O)N[C@H](CCC(=O)O)C(=O)O)C(=O)O)cc1)C1CCc2cc3nc(N)[nH]c(=O)c3cc21 (mixture of isomers) [CB300944 (RS)] | (1) fold | (1) fold | 19 ± 1.5 | 19 ± 1.2 | (1) fold | 24 ± 3.6 | 24 ± 2.9 | 22 | 0.57 | (3) fold | (1) fold | (3) fold | (1) fold | 9.1 ± 0.83 | 12 ± 2.1 | 7.1 ± 1 | very little activity | 19 | (1) fold | 27 | IC50 ([1]; Homo sapiens, KB, 20 nM LV, read-out: Inhibition of cell growth, IC50, KB): 19 ± 0.58 µM; IC50 ([2]; Homo sapiens, A-431, 20 nM LV, read-out: Inhibition of cell growth, IC50, A431): 23 µM; IC50 ([4]; Homo sapiens, A-431, 20 nM LV, read-out: Inhibition of cell growth, IC50, A431-FBP): 8.3 ± 0.64 µM |
| C#CCN(Cc1cc2c(O)nc(C)nc2cc1C)c1ccc(C(=O)N[C@@H](CCc2nnn[nH]2)C(=O)O)c(F)c1 [ZD9331] | (3) fold | (3) fold | – | – | (1) fold | – | – | – | – | (7) fold | (3) fold | (4) fold | (2) fold | – | – | – | – | – | (1) fold | 0.082 ± 0.042 | IC50 ([1]; 1 nM LV, read-out: Inhibition of cell growth, IC50, KB): 0.0021 ± 0.0013 µM; IC50 ([1]; 20 nM LV, read-out: Inhibition of cell growth, IC50, KB): 0.0036 ± 0.0021 µM; IC50 ([1]; read-out: Inhibition of cell growth, IC50, KB + 1 μM FA, 1 nM LV, + 1 μM folic acid): 0.00641 ± 0.0035 µM; IC50 ([1]; read-out: Inhibition of cell growth, IC50, KB + 1 μM FA, 20 nM LV, + 1 μM folic acid): 0.012 ± 0.005 µM; IC50 ([2]; 1 nM LV, read-out: Inhibition of cell growth, IC50, A431): 0.061 ± 0.014 µM; IC50 ([2]; read-out: Inhibition of cell growth, IC50, A431 + 1 μM FA, 1 nM LV, + 1 μM folic acid): 0.056 ± 0.025 µM; IC50 ([2]; read-out: Inhibition of cell growth, IC50, A431 + 1 μM FA, 20 nM LV, + 1 μM folic acid): 0.067 ± 0.029 µM; IC50 ([4]; 1 nM LV, read-out: Inhibition of cell growth, IC50, A431-FBP): 0.0088 ± 0.0052 µM; IC50 ([4]; 20 nM LV, read-out: Inhibition of cell growth, IC50, A431-FBP): 0.018 ± 0.0097 µM; IC50 ([4]; read-out: Inhibition of cell growth, IC50, A431-FBP + 1 μM FA, 1 nM LV, + 1 μM folic acid): 0.027 ± 0.0076 µM; IC50 ([4]; read-out: Inhibition of cell growth, IC50, A431-FBP + 1 μM FA, 20 nM LV, + 1 μM folic acid): 0.034 ± 0.0087 µM |
